From PubChem BioAssay AID2060627 (Molecular Pharmacology Branch, DTP, NCI, 2025)

These molecules were tested on 156681-154-R-J1-PDC complex spheroid viability (assay: Anticancer human tumor 156681-154-R-J1-PDC patient-derived melanoma cell line growth inhibition [CLK]). Details: second compound 0.1 µM; first compound 1 µM; hits give low values.
How it was run: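 Multi-cell-type spheroids combined patient-derived tumor cells with HUVEC endothelial cells and human mesenchymal stem cells. Paired agents were dosed in half-log steps down from about clinical Cmax, or from 10 microM where Cmax was unknown.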
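Further: spheroids exposed to the agents for seven days; 100% = DMSO vehicle control viability.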

Point of comparison: COc1ccc([C@@H](O)c2cc(-c3ncnc4cc(N5CCOCC5)ccc34)c(F)cc2Cl)nn1 + CNC(=O)c1ccc(Nc2nc(OC3CCCC3)c3c(-c4ccc5nc(C)oc5c4)c[nH]c3n2)c(OC)c1, viability, T/C 56.8%. Against it:
- CC(CO)NC(=O)c1cc(-c2ccc(Cl)cc2)nn(-c2cnn(C)c2)c1=O (configuration not stated) + CNC(=O)c1ccc(Nc2nc(OC3CCCC3)c3c(-c4ccc5nc(C)oc5c4)c[nH]c3n2)c(OC)c1 — higher, 81.7%
- Nc1ccn(C2OC(CO)C(O)C2(F)F)c(=O)n1 (configuration not stated) + CN1CCN(c2cc(C(=O)Nc3cc4cc(-c5cnn(C)c5)ccc4cn3)ccn2)CC1 — lower, 12.8%
- COC1C=CCC(C)C(C)S(=O)(=O)NC(=O)c2ccc3c(c2)N(CC2CCC21)CC1(CCCc2cc(Cl)ccc21)CO3 (configuration not stated) + CN1CCN(c2cc(C(=O)Nc3cc4cc(-c5cnn(C)c5)ccc4cn3)ccn2)CC1 — higher, 58%

Same assay, conditions: second compound 0.1 µM; first compound 3.16 µM; hits give low values

Point of comparison: CC(CO)NC(=O)c1cc(-c2ccc(Cl)cc2)nn(-c2cnn(C)c2)c1=O (configuration not stated) + CNC(=O)c1ccc(Nc2nc(OC3CCCC3)c3c(-c4ccc5nc(C)oc5c4)c[nH]c3n2)c(OC)c1, viability, T/C 67.2%. Against it:
- Nc1ccn(C2OC(CO)C(O)C2(F)F)c(=O)n1 (configuration not stated) + CN1CCN(c2cc(C(=O)Nc3cc4cc(-c5cnn(C)c5)ccc4cn3)ccn2)CC1 — lower, 10.9%
- COc1ccc([C@@H](O)c2cc(-c3ncnc4cc(N5CCOCC5)ccc34)c(F)cc2Cl)nn1 + CNC(=O)c1ccc(Nc2nc(OC3CCCC3)c3c(-c4ccc5nc(C)oc5c4)c[nH]c3n2)c(OC)c1 — lower, 41.2%
- COC1C=CCC(C)C(C)S(=O)(=O)NC(=O)c2ccc3c(c2)N(CC2CCC21)CC1(CCCc2cc(Cl)ccc21)CO3 (configuration not stated) + CN1CCN(c2cc(C(=O)Nc3cc4cc(-c5cnn(C)c5)ccc4cn3)ccn2)CC1 — lower, 11.7%

Same assay, conditions: second compound 0.1 µM; first compound 10 µM; hits give low values

Point of comparison: CC(CO)NC(=O)c1cc(-c2ccc(Cl)cc2)nn(-c2cnn(C)c2)c1=O (configuration not stated) + CNC(=O)c1ccc(Nc2nc(OC3CCCC3)c3c(-c4ccc5nc(C)oc5c4)c[nH]c3n2)c(OC)c1, viability, T/C 50.6%. Against it:
- Nc1ccn(C2OC(CO)C(O)C2(F)F)c(=O)n1 (configuration not stated) + CN1CCN(c2cc(C(=O)Nc3cc4cc(-c5cnn(C)c5)ccc4cn3)ccn2)CC1 — lower, 12.8%
- COc1ccc([C@@H](O)c2cc(-c3ncnc4cc(N5CCOCC5)ccc34)c(F)cc2Cl)nn1 + CNC(=O)c1ccc(Nc2nc(OC3CCCC3)c3c(-c4ccc5nc(C)oc5c4)c[nH]c3n2)c(OC)c1 — lower, 21.3%
- COC1C=CCC(C)C(C)S(=O)(=O)NC(=O)c2ccc3c(c2)N(CC2CCC21)CC1(CCCc2cc(Cl)ccc21)CO3 (configuration not stated) + CN1CCN(c2cc(C(=O)Nc3cc4cc(-c5cnn(C)c5)ccc4cn3)ccn2)CC1 — lower, 2.71%

Same assay, conditions: second compound 0.316 µM; first compound 0.00316 µM; hits give low values

CCc1c2c(nc3ccc(O)cc13)-c1cc3c(c(=O)n1C2)COC(=O)[C@]3(O)CC + CNC(=O)c1ccc(Nc2nc(OC3CCCC3)c3c(-c4ccc5nc(C)oc5c4)c[nH]c3n2)c(OC)c1 showed a viability, T/C of 27.4%.

Same assay, conditions: second compound 0.316 µM; first compound 0.01 µM; hits give low values

CCc1c2c(nc3ccc(O)cc13)-c1cc3c(c(=O)n1C2)COC(=O)[C@]3(O)CC + CNC(=O)c1ccc(Nc2nc(OC3CCCC3)c3c(-c4ccc5nc(C)oc5c4)c[nH]c3n2)c(OC)c1 gave a viability, T/C of 14.2%.

Same assay, conditions: second compound 0.316 µM; first compound 0.0316 µM; hits give low values

Point of comparison: COc1ccc([C@@H](O)c2cc(-c3ncnc4cc(N5CCOCC5)ccc34)c(F)cc2Cl)nn1 + CNC(=O)c1ccc(Nc2nc(OC3CCCC3)c3c(-c4ccc5nc(C)oc5c4)c[nH]c3n2)c(OC)c1, viability, T/C 59.5%. Against it:
- CCc1c2c(nc3ccc(O)cc13)-c1cc3c(c(=O)n1C2)COC(=O)[C@]3(O)CC + CNC(=O)c1ccc(Nc2nc(OC3CCCC3)c3c(-c4ccc5nc(C)oc5c4)c[nH]c3n2)c(OC)c1 — lower, 12.8%
- CC(CO)NC(=O)c1cc(-c2ccc(Cl)cc2)nn(-c2cnn(C)c2)c1=O (configuration not stated) + CNC(=O)c1ccc(Nc2nc(OC3CCCC3)c3c(-c4ccc5nc(C)oc5c4)c[nH]c3n2)c(OC)c1 — higher, 62.9%
- Nc1ccn(C2OC(CO)C(O)C2(F)F)c(=O)n1 (configuration not stated) + CN1CCN(c2cc(C(=O)Nc3cc4cc(-c5cnn(C)c5)ccc4cn3)ccn2)CC1 — lower, 13.8%
- COC1C=CCC(C)C(C)S(=O)(=O)NC(=O)c2ccc3c(c2)N(CC2CCC21)CC1(CCCc2cc(Cl)ccc21)CO3 (configuration not stated) + CN1CCN(c2cc(C(=O)Nc3cc4cc(-c5cnn(C)c5)ccc4cn3)ccn2)CC1 — lower, 27.3%

Same assay, conditions: second compound 0.316 µM; first compound 0.1 µM; hits give low values

Point of comparison: CCc1c2c(nc3ccc(O)cc13)-c1cc3c(c(=O)n1C2)COC(=O)[C@]3(O)CC + CNC(=O)c1ccc(Nc2nc(OC3CCCC3)c3c(-c4ccc5nc(C)oc5c4)c[nH]c3n2)c(OC)c1, viability, T/C 16.4%. Against it:
- CC(CO)NC(=O)c1cc(-c2ccc(Cl)cc2)nn(-c2cnn(C)c2)c1=O (configuration not stated) + CNC(=O)c1ccc(Nc2nc(OC3CCCC3)c3c(-c4ccc5nc(C)oc5c4)c[nH]c3n2)c(OC)c1 — higher, 71.4%
- Nc1ccn(C2OC(CO)C(O)C2(F)F)c(=O)n1 (configuration not stated) + CN1CCN(c2cc(C(=O)Nc3cc4cc(-c5cnn(C)c5)ccc4cn3)ccn2)CC1 — lower, 14%
- COc1ccc([C@@H](O)c2cc(-c3ncnc4cc(N5CCOCC5)ccc34)c(F)cc2Cl)nn1 + CNC(=O)c1ccc(Nc2nc(OC3CCCC3)c3c(-c4ccc5nc(C)oc5c4)c[nH]c3n2)c(OC)c1 — higher, 62%
- COC1C=CCC(C)C(C)S(=O)(=O)NC(=O)c2ccc3c(c2)N(CC2CCC21)CC1(CCCc2cc(Cl)ccc21)CO3 (configuration not stated) + CN1CCN(c2cc(C(=O)Nc3cc4cc(-c5cnn(C)c5)ccc4cn3)ccn2)CC1 — higher, 17.2%

Same assay, conditions: second compound 0.316 µM; first compound 0.316 µM; hits give low values

Point of comparison: CC(CO)NC(=O)c1cc(-c2ccc(Cl)cc2)nn(-c2cnn(C)c2)c1=O (configuration not stated) + CNC(=O)c1ccc(Nc2nc(OC3CCCC3)c3c(-c4ccc5nc(C)oc5c4)c[nH]c3n2)c(OC)c1, viability, T/C 58.8%. Against it:
- CCc1c2c(nc3ccc(O)cc13)-c1cc3c(c(=O)n1C2)COC(=O)[C@]3(O)CC + CNC(=O)c1ccc(Nc2nc(OC3CCCC3)c3c(-c4ccc5nc(C)oc5c4)c[nH]c3n2)c(OC)c1 — lower, 14.8%
- Nc1ccn(C2OC(CO)C(O)C2(F)F)c(=O)n1 (configuration not stated) + CN1CCN(c2cc(C(=O)Nc3cc4cc(-c5cnn(C)c5)ccc4cn3)ccn2)CC1 — lower, 10.1%
